Data set [1] concerns the target T1, dipeptidyl peptidase IV in rat plasma (Rattus norvegicus, UniProt P14740).
T1 construct: Plasma (20 μl) prepared from blood of SD rat by a conventional method; from tissue; host or cells: plasma of SD rat
As to the kind of experiment: Determination of dipeptidyl peptidase IV inhibitory activity in rat plasma. Type of data set: biochemical. The conditions noted are these: SD rat plasma, substrate Gly-Pro-p-NA, 30° C., absorbance 405 nm after 0 h and 1 h.
Method: Determination of Dipeptidyl Peptidase IV Inhibitory Activity in Rat Plasma
An N,N-dimethylformamide solution (1 μl) containing the test compound was added to a mixture of water (69 μl), 1M Tris-hydrochloride buffer (10 μl, pH 7.5) and 1 mM aqueous Gly-Pro-p-NA solution (100 μl) to prepare a mixed solution. Plasma (20 μl) prepared from blood of SD rat by a conventional method was added the above-mentioned, mixed solution and the enzyme reaction was started at 30° C. The absorbance after 0 h and 1 h was measured using a microplate reader at a wavelength of 405 nm and an increase (ΔODs) was determined. At the same time, an increase (ΔODc) in absorbance of the reaction mixture without the test compound, and an increase (ΔODb) in absorbance of the reaction mixture without the test compound and the enzyme were determined and percent inhibition of dipeptidyl peptidase IV enzyme activity was calculated from the following formula: {1-[(ΔODs−ΔODb)/(ΔODc−ΔODb)]}×100

Data set [2] concerns the target T2, Caco-2-derived dipeptidyl peptidase IV (Homo sapiens, UniProt P27487).
T2 construct: A dipeptidyl peptidase IV crude enzyme solution was prepared from culture cell of Caco-2 (ATCC HTB-37); endogenous in cells; host or cells: Caco-2 (ATCC HTB-37)
Put plainly: Determination of Caco-2-derived dipeptidyl peptidase IV inhibitory activity. The format is biochemical. The conditions noted are these: Caco-2 crude enzyme solution, substrate Gly-Pro-p-NA, 37° C., absorbance 405 nm after 0 h and 3 h.
Method: 1) Preparation of Dipeptidyl Peptidase IV Crude Enzyme Solution
A dipeptidyl peptidase IV crude enzyme solution was prepared from culture cell of Caco-2 (ATCC HTB-37). The Caco-2 cells were cultured in D-MEM medium (manufactured by Nissui Pharmaceutical Co., Ltd.) containing 10% FBS (fetal calf serum (manufactured by GIBCO)). The cell extract was prepared by soaking the cells collected by removing the medium in 20 mM phosphate buffer. (pH 7.5) containing 0.5% Triton X-100, extracting for 30 min in an ice bath and separating the supernatant obtained by centrifugation 1500 g for 30 min. The cell extract (22 ml) was applied to a column of Sephadex G-200 (600 ml, manufactured by Pharmacia Corporation) equilibrated with 20 mM Tris-hydrochloride buffer (pH 7.5) and eluted with the same buffer. The elution was fractionated by 10 ml, examined for enzyme activity and 190 ml–280 ml fractions (90 ml) were collected. […]
An N,N-dimethylformamide solution (5 μl) containing the test compound was added to a mixture of water (25 μl), 1M Tris-hydrochloride buffer (10 μl, pH 7.5) and 1 mM aqueous glycylprolyl-p-nitroanilide (Gly-Pro-p-NA; manufactured by Backem AG) solution (50 μl) to prepare a mixed solution. […] The absorbance after 0 h and 3 h was measured using a microplate reader (Multiskan Bichromatic; manufactured by Labsystems) at a wavelength of 405 nm and an increase (ΔODs) was determined. […]

The test system of the next data set is Wistar fatty rats. As to the kind of experiment: Plasma glucose-lowering effect and insulinotropic effect in rat (oral glucose tolerance test). The format is in vivo. The conditions noted are these: female Wistar fatty rats, 3 mg/kg orally 60 min before glucose load (1 g/kg), blood at 30 min after glucose load.

Counter-ions that a name gives are not always drawn.

T1 sequence (P14740 38-767 limits assumed): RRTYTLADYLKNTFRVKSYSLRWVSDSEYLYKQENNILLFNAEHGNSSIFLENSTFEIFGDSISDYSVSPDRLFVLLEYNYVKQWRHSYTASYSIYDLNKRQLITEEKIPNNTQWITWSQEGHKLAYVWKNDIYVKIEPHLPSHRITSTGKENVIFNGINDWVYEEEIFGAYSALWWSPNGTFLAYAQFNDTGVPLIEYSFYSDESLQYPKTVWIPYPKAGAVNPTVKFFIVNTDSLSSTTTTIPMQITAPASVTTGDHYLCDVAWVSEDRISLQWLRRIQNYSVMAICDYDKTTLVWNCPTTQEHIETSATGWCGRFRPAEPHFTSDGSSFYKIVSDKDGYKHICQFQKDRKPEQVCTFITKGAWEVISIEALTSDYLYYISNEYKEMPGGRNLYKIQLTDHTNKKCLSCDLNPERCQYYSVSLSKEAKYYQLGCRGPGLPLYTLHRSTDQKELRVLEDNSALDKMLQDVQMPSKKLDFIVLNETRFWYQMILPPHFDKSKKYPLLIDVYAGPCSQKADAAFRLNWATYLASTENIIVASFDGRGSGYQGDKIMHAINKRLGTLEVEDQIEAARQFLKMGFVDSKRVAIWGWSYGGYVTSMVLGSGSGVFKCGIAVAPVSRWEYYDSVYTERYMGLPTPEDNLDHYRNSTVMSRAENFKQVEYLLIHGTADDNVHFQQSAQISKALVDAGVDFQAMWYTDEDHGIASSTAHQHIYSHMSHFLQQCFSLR
T2 sequence (P27487 whole entry): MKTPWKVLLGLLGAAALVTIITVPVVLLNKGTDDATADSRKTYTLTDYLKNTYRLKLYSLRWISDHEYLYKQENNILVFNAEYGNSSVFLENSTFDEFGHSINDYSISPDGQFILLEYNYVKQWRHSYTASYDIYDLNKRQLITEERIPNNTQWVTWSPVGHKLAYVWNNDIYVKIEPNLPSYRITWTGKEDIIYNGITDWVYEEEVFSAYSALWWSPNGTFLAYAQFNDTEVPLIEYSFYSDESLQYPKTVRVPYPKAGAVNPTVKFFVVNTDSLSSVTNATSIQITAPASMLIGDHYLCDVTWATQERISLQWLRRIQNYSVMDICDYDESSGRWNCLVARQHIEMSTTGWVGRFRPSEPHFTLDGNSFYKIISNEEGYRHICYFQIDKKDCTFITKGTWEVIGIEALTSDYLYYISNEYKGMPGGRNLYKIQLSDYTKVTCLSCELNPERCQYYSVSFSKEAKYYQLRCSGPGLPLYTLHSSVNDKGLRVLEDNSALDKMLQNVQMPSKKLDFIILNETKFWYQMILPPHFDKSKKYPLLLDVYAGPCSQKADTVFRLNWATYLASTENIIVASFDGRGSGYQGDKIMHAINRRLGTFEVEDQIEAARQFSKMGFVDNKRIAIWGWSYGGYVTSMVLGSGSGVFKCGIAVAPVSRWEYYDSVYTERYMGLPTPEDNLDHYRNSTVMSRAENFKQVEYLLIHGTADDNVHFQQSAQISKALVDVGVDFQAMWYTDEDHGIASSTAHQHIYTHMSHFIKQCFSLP
Method for Wistar fatty rats: Plasma Glucose-lowering Effect and Insulinotropic Effect in Rat
Female Wistar fatty rats (17-week-old, 6 per group) were fasted overnight and blood was drawn from the tail vein. The plasma glucose level before administration of the test compound was measured. Then the test compound (3 mg/kg body weight/5 mL) suspended in 0.5% methyl cellulose was orally administered to the rats using a gastric tube. Oral glucose tolerance test (1 g/kg body weight/5 mL) was started 60 min later. Blood was drawn at 30 min after starting glucose load, and plasma glucose level and insulin level of the serum were measured.

`Cc1ccc(-c2c(CN)n(CC(C)C)c(=O)c3ccccc23)cc1.Cl`: the melting point was 178 to 180 °C (dec.). On the same count and under the same terms, the figure for `CCCCOc1c(CN)n(CC2CC2)c(=O)c2ccc(-c3cnco3)cc12.Cl` is 124 to 126 °C.

`CCCCOc1c(CN)n(CC2CC2)c(=O)c2ccc(/C=C/C(N)=O)cc12.Cl` registered a melting point of 188 to 190 °C. Same read-out and setting: the figure for `CCCCOc1c(CN)n(CC(C)C)c(=O)c2ccc(/C=C/C(N)=O)cc12.Cl` is 223 to 225 °C; for `CCCCOc1c(CN)n(CC(C)C)c(=O)c2ccc(-c3cnco3)cc12.Cl` it is 211 to 213 °C. The compound `CC(C)Cn1c(CN)c(-c2cccc(F)c2)c2cc(OCC(N)=O)ccc2c1=O.Cl` registered a melting point of 209 to 210 °C. The same measure, in the same setting: with `CC(C)Cn1c(CN)c(-c2ccc(F)cc2)c2cc(OCC(N)=O)ccc2c1=O.Cl` the figure was 189 to 190 °C. The same measure, in the same setting: with `CC(=O)c1ccc2c(=O)n(CC(C)C)c(CN)c(-c3ccccc3)c2c1.Cl` the figure was 179 °C (dec.); with `CC(C)Cn1c(CN)c(-c2ccccc2)c2cc(-c3nn[nH]n3)ccc2c1=O.Cl`, 218 to 220 °C. The compound `CSc1ccc2c(=O)n(CC(C)C)c(CN)c(-c3ccccc3)c2c1.Cl` came in with a melting point of 252 to 255 °C. Still for that read-out and setting: the figure for `CC(C)Cn1c(CN)c(-c2ccccc2)c2cc(S(C)(=O)=O)ccc2c1=O.Cl` is 209 °C (dec.); for `CC(C)Cn1c(CN)c(-c2ccccc2)c2cc(-c3noc(=O)[nH]3)ccc2c1=O.Cl` it is 253 °C (dec.); for `CC(C)Cn1c(CN)c(-c2ccccc2)c2cc(-c3nsc(=O)[nH]3)ccc2c1=O.Cl` it is 232 to 237 °C. Take `CC(C)Cn1c(CN)c(-c2ccc(Cl)cc2)c2cc(O)ccc2c1=O.Cl`: the melting point was 247 to 249 °C. As for `CCCCOc1c(CN)n(CC(C)C)c(=O)c2ccc(C(N)=S)cc12.Cl`, the melting point lay within 200 to 202 °C.

The compound `Cc1ccc(-c2c(CN)n(CC(C)C)c(=O)c3ccc(O)cc23)cc1.Cl` registered a melting point of 255 to 256 °C. On the same count and under the same terms, the figure for `CC(C)Cn1c(CN)c(-c2ccc(F)cc2)c2cc(/C=C/C(=O)O)ccc2c1=O.Cl` is 255 to 256 °C; for `CCCCOc1c(CN)n(CC(C)(C)C)c(=O)c2ccc(CC(N)=O)cc12.Cl` it is 163 to 165 °C; for `CC(C)Cn1c(CN)c(-c2ccccc2)c2cc(CC#N)ccc2c1=O.Cl` it is 142 to 144 °C. Still for that read-out and setting: the figure for `CCCCOc1c(CN)n(CC(C)C)c(=O)c2ccc(C#N)cc12.Cl` is 135 to 136 °C. Still for that read-out and setting: with `CCCCOc1c(CN)n(CC(C)C)c(=O)c2ccc(NC(=O)C(C)C)cc12.Cl` the figure was 181 to 183 °C; with `CCCCOc1c(CN)n(CC(C)(C)C)c(=O)c2ccc(OCC(N)=O)cc12` (as salt: hydrochloride) [Example 95, 2-{{3-(Aminomethyl)-4-butoxy-2-neopentyl-1-oxo-1,2-dihydro-6-isoquinolinyl}oxy}acetamide hydrochloride], 233 to 235 °C. Turning to `CCCCOc1c(CN)n(CC2CC2)c(=O)c2ccc(C(N)=O)cc12.Cl` (hydrate or solvate), the melting point was 164 to 165 °C. The same measure, in the same setting: the figure for `CCCCOc1c(CN)n(CC2CC2)c(=O)c2ccc(OCC(N)=O)cc12.Cl` (hydrate or solvate) is 133 to 134 °C. Same read-out and setting: with `CCCCOc1c(CN)n(CC(C)C)c(=O)c2ccc(OCC(N)=O)cc12.Cl` (hydrate or solvate) the figure was 248 to 250 °C.

For the compound `CC(C)Cn1c(CN)c(-c2ccccc2)c2cc(/C=C/C(N)=O)ccc2c1=O.Cl` (hydrate or solvate), the melting point was 223 to 225 °C. `CCCCOc1c(CN)n(CC(C)(C)C)c(=O)c2ccc(/C=C/C(N)=O)cc12.Cl` (hydrate or solvate) yielded a melting point of 187 to 188 °C.

In turn, `CC(C)Cn1c(CN)c(OCCCC(F)(F)F)c2cc(OCC(N)=O)ccc2c1=O.Cl` (hydrate or solvate) had a melting point of 147 to 148 °C.

Regarding `Cc1ccc(-c2c(CN)n(CC(C)C)c(=O)c3ccc(OCC(N)=O)cc23)cc1.Cl` (hydrate or solvate), the melting point is 278 to 280 °C.

Compound `Cc1csc(-c2ccc3c(=O)n(CC(C)C)c(CN)c(-c4ccccc4)c3c2)n1` (hydrate or solvate) [Example 194, 3-(Aminomethyl)-2-isobutyl-6-(4-methyl-1,3-thiazol-2-yl)-4-phenyl-1(2H)-isoquinolinone] registered a melting point of 162 to 163 °C. Compound `CCCCOc1c(CN)n(CC(C)(C)C)c(=O)c2ccc(OCC(N)=O)cc12` [Example 95, 2-{{3-(Aminomethyl)-4-butoxy-2-neopentyl-1-oxo-1,2-dihydro-6-isoquinolinyl}oxy}acetamide hydrochloride] had an IC50 in data set [1] of 180 nM. Further, the concentration for half-maximal inhibition (IC50) in data set [2] is 280 nM. Moreover, in the data set on Wistar fatty rats, the Plasma glucose level is reported as 82 % of control and the insulin level is 188 % of control. With `CC(C)Cn1c(CN)c(-c2ccccc2)c2cc(Br)ccc2c1=O` [Example 106, 3-Aminomethyl-6-bromo-2-isobutyl-4-phenyl-1(2H)-isoquinolinone], the melting point is 129 to 130 °C.

For `CC(C)Cn1c(CN)c(-c2ccccc2)c2cc(C(N)=O)ccc2c1=O` [Example 109, 3-Aminomethyl-2-isobutyl-4-phenyl-1(2H)-isoquinolinone-6-carboxamide hydrochloride [3-(aminomethyl)-2-isobutyl-1-oxo-4-phenyl-1,2-dihydro-6-isoquinolinecarboxamide hydrochloride]], in the data set on Wistar fatty rats, the Plasma glucose level is 73 % of control and the insulin level is reported as 205 % of control. Compound `CC(=O)Nc1ccc2c(=O)n(CC(C)C)c(CN)c(-c3ccccc3)c2c1.Cl` [Example 112, 6-Acetylamino-3-aminomethyl-2-isobutyl-4-phenyl-1(2H)-isoquinolinone hydrochloride] gave an IC50 in data set [1] of 320 nM. For the same compound, in data set [2], the 50% inhibitory concentration (IC50) amounted to 250 nM. Besides, in the data set on Wistar fatty rats, the Plasma glucose level was 76 % of control and the insulin level is 255 % of control. For `CCn1c(CN)c(-c2ccccc2)c2cc(Cl)ccc2c1=O` [Example 113, 3-(Aminomethyl)-6-chloro-2-ethyl-4-phenyl-1(2H)-isoquinolinone], the melting point was in the range of 126 to 127 °C. Consider `CC(C)Cn1c(CN)c(-c2ccccc2)c2cc(Cl)ccc2c1=O` [Example 118, 3-(Aminomethyl)-6-chloro-2-isobutyl-4-phenyl-1(2H)-isoquinolinone], for which the melting point lay in the range of 123 to 124 °C. Still for that read-out and setting: the figure for `CC(C)(C)Cn1c(CN)c(-c2ccccc2)c2cc(Cl)ccc2c1=O` [Example 122, 3-(Aminomethyl)-6-chloro-2-neopentyl-4-phenyl-1(2H)-isoquinolinone] is 173 to 174 °C; for `CC(C)Cn1c(CN)c(-c2ccccc2)c2ccccc2c1=O` [Example 123, 3-(Aminomethyl)-2-isobutyl-4-phenyl-1(2H)-isoquinolinone] it is 129 to 130 °C. `CC(C)Cn1c(CN)c(-c2ccc(Cl)cc2)c2ccccc2c1=O` [Example 124, 3-(Aminomethyl)-4-(4-chlorophenyl)-2-isobutyl-1(2H)-isoquinolinone] displayed a melting point of 119 to 120 °C. The same measure, in the same setting: the figure for `CC(C)Cn1c(CN)c(-c2ccccc2)c2cc(/C=C/C(N)=O)ccc2c1=O` [Example 160, (E)-3-[3-(Aminomethyl)-2-isobutyl-1-oxo-4-phenyl-1,2-dihydro-6-isoquinolinyl]-2-propenamide] is 228 to 230 °C; for `CC1=NN(c2ccc3c(=O)n(CC(C)C)c(CN)c(-c4ccccc4)c3c2)CO1` [Example 166, 3-(Aminomethyl)-2-isobutyl-6-(5-methyl-1,3,4-oxadiazol-3-yl)-4-phenyl-1(2H)-isoquinolinone] it is 179 to 181 °C; for `CC(C)Cn1c(CN)c(-c2ccccc2)c2cc(SCC(N)=O)ccc2c1=O` [Example 171, 2-{[3-(Aminomethyl)-2-isobutyl-1-oxo-4-phenyl-1,2-dihydro-6-isoquinolinyl]sulfanyl}acetamide] it is 218 to 220 °C. As to `CC(C)Cn1c(CN)c(-c2ccccc2)c2cc([S+](C)[O-])ccc2c1=O` (centres unmarked) [Example 172, 3-(Aminomethyl)-2-isobutyl-6-(methylsulfinyl)-4-phenyl-1(2H)-isoquinolinone], the melting point is 167 °C (dec.).

Broadly, the melting point is the temperature, or range, at which the solid turns liquid. As a reminder, the IC50 is the concentration that gives 50% inhibition. Low values mean inhibition by little substance, high ones a need for much substance.

The values above are taken from patent publication US7034039B2, “Fused heterocyclic compounds” (Takeda Pharmaceutical Company Limited, priority 2001, dated 2006).
